What all share (format): functional
The test system of assay [1] is Streptococcus pneumoniae. Put plainly: Antibacterial activity against macrolide resistant Streptococcus pneumoniae ATCC 700676.
The test system of assay [2] is Enterococcus faecalis. As to the kind of experiment: Antibacterial activity against Enterococcus faecalis ATCC 51575.
For assay [3], the system named is Streptococcus pneumoniae. As to the kind of experiment: Antibacterial activity against macrolide resistant Streptococcus pneumoniae ATCC 700906.
Assay [4] deals with Staphylococcus aureus. Put plainly: Antibacterial activity against macrolide resistant Staphylococcus aureus ATCC 33591.
Assay [5] concerns Staphylococcus aureus. Put plainly: Antibacterial activity against Staphylococcus aureus ATCC 29213.
In assay [6] the test system is Staphylococcus aureus. As to the kind of experiment: Antibacterial activity against Staphylococcus aureus ATCC 6538p.
The subject of assay [7] is Streptococcus pneumoniae. As to the kind of experiment: Antibacterial activity against Streptococcus pneumoniae ATCC 49619.
The subject of assay [8] is Streptococcus pneumoniae. As to the kind of experiment: Antibacterial activity against Streptococcus pneumoniae ATCC 700671.
The test system of assay [9] is Staphylococcus aureus. Put plainly: Antibacterial activity against macrolide resistant Staphylococcus aureus ATCC 141541.
Assay [10] has as its system Staphylococcus aureus. As to the kind of experiment: Antibacterial activity against macrolide resistant Staphylococcus aureus ATCC BAA-39.
Assay [11] concerns Staphylococcus aureus. As to the kind of experiment: Antibacterial activity against macrolide resistant Staphylococcus aureus ATCC BAA-44.
Assay [12] has as its system Staphylococcus epidermidis. As to the kind of experiment: Antibacterial activity against Staphylococcus epidermidis ATCC 12228.
The test system of assay [13] is Streptococcus pneumoniae. As to the kind of experiment: Antibacterial activity against Streptococcus pneumoniae ATCC 6301.
For assay [14], the system named is Streptococcus pneumoniae. As to the kind of experiment: Antibacterial activity against macrolide resistant Streptococcus pneumoniae ATCC 700905.
For assay [15], the system named is Streptococcus pneumoniae. Put plainly: Antibacterial activity against macrolide resistant Streptococcus pneumoniae ATCC 700677.

Converted amounts (≈) assume the structure as drawn.

The MIC is the lowest concentration found to suppress growth. A low value points to a more susceptible organism. With `CC[C@H]1OC(=O)C[C@@H](O)[C@H](C)[C@@H](O[C@@H]2O[C@H](C)[C@@H](O)[C@H](N(C)C)[C@H]2O)[C@@H](CC=O)C[C@@H](C)C(=N/OCCCCOc2ccc3ncccc3c2)/C=C/C(C)=C/C1CO` (stereo not given in full), the minimal inhibitory concentration (MIC) in assay [1] was 0.025 µg/mL (≈ 0.0308 µM); in assay [2], greater than 12.5 µg/mL; in [3], greater than 12.5 µg/mL; in assay [4], greater than 12.5 µg/mL; in [5] it was 0.78 µg/mL (≈ 0.961 µM); in assay [6] it was 0.2 µg/mL (≈ 0.246 µM). For the same compound, the MIC in assay [7] was 0.01 µg/mL (≈ 0.0123 µM); in assay [8] it was 0.025 µg/mL (≈ 0.0308 µM); in assay [9], 0.78 µg/mL (≈ 0.961 µM); in assay [10], greater than 12.5 µg/mL; in [11], greater than 12.5 µg/mL; in [12], 0.2 µg/mL (≈ 0.246 µM). Further, the minimal inhibitory concentration (MIC) in assay [13] was 0.025 µg/mL (≈ 0.0308 µM); in assay [14] it was 0.025 µg/mL (≈ 0.0308 µM); in [15], 0.39 µg/mL (≈ 0.48 µM).
As to `CC[C@H]1OC(=O)C[C@@H](O)[C@H](C)[C@@H](O[C@@H]2O[C@H](C)[C@@H](O)[C@H](N(C)C)[C@H]2O)[C@@H](CC=O)C[C@@H](C)C(=N/OCc2ccccc2)/C=C/C(C)=C/C1CO` (stereo not given in full), the MIC is 0.025 µg/mL (≈ 0.0356 µM) in assay [1]; greater than 12.5 µg/mL in assay [2]; greater than 12.5 µg/mL in assay [3]; greater than 12.5 µg/mL in assay [4]; 1.56 µg/mL (≈ 2.22 µM) in [5]; 0.39 µg/mL (≈ 0.555 µM) in [6]. In addition, the minimum inhibitory concentration (MIC) in assay [7] is 0.2 µg/mL (≈ 0.285 µM); in assay [8], 0.2 µg/mL (≈ 0.285 µM); in [9] it was 1.56 µg/mL (≈ 2.22 µM); in assay [10], greater than 12.5 µg/mL; in assay [11], greater than 12.5 µg/mL; in assay [12], 0.78 µg/mL (≈ 1.11 µM). The minimal inhibitory concentration (MIC) worked out at 0.025 µg/mL (≈ 0.0356 µM) in [13], 0.2 µg/mL (≈ 0.285 µM) in assay [14] and 1.56 µg/mL (≈ 2.22 µM) in assay [15].
Consider `CC[C@H]1OC(=O)C[C@@H](O)[C@H](C)[C@@H](O[C@@H]2O[C@H](C)[C@@H](O)[C@H](N(C)C)[C@H]2O)[C@@H](CC=O)C[C@@H](C)C(=N/OC/C=C\c2cnc3ccccc3c2)/C=C/C(C)=C/C1CO` (stereo not given in full), for which the MIC was 0.049 µg/mL (≈ 0.0628 µM) in assay [1]; greater than 12.5 µg/mL in assay [2]; greater than 12.5 µg/mL in assay [3]; greater than 12.5 µg/mL in assay [4]; 0.78 µg/mL (≈ 1 µM) in [5]; 0.2 µg/mL (≈ 0.256 µM) in assay [6]. For the same compound, the MIC in assay [7] is 0.025 µg/mL (≈ 0.0321 µM); in assay [8], 0.025 µg/mL (≈ 0.0321 µM); in [9], 0.78 µg/mL (≈ 1 µM); in assay [10] it was greater than 12.5 µg/mL; in assay [11] it was greater than 12.5 µg/mL; in [12], 0.39 µg/mL (≈ 0.5 µM). The minimum inhibitory concentration (MIC) was 0.025 µg/mL (≈ 0.0321 µM) in [13], 0.049 µg/mL (≈ 0.0628 µM) in assay [14] and greater than 12.5 µg/mL in assay [15].
With `CC[C@H]1OC(=O)C[C@@H](O)[C@H](C)[C@@H](O[C@@H]2O[C@H](C)[C@@H](O)[C@H](N(C)C)[C@H]2O)[C@@H](CC=O)C[C@@H](C)C(=N/OCC(=O)N2CCN(c3ccccc3)CC2)/C=C/C(C)=C/C1CO` (stereo not given in full), the minimum inhibitory concentration (MIC) in assay [1] was 0.39 µg/mL (≈ 0.479 µM); in assay [2] it was greater than 12.5 µg/mL; in assay [3] it was greater than 12.5 µg/mL; in assay [4], greater than 12.5 µg/mL; in [5], 1.56 µg/mL (≈ 1.91 µM); in [6] it was 0.78 µg/mL (≈ 0.957 µM). The minimum inhibitory concentration (MIC) is 0.01 µg/mL (≈ 0.0123 µM) in assay [7]; 0.025 µg/mL (≈ 0.0307 µM) in assay [8]; 1.56 µg/mL (≈ 1.91 µM) in assay [9]; greater than 12.5 µg/mL in assay [10]; greater than 12.5 µg/mL in assay [11]; 0.2 µg/mL (≈ 0.245 µM) in [12]. The minimal inhibitory concentration (MIC) in assay [13] turned out to be 0.025 µg/mL (≈ 0.0307 µM); in assay [14], 0.2 µg/mL (≈ 0.245 µM); in assay [15], 6.25 µg/mL (≈ 7.67 µM).
Consider `CC[C@H]1OC(=O)C[C@@H](O)[C@H](C)[C@@H](O[C@@H]2O[C@H](C)[C@@H](O)[C@H](N(C)C)[C@H]2O)[C@@H](CC=O)C[C@@H](C)C(=N\OCC#Cc2cnc3ccccc3c2)/C=C/C(C)=C/C1CO` (stereo not given in full), for which the MIC in assay [1] is 0.049 µg/mL (≈ 0.063 µM); in [2], greater than 12.5 µg/mL; in assay [3] it was greater than 12.5 µg/mL; in assay [4], greater than 12.5 µg/mL; in assay [5], 0.39 µg/mL (≈ 0.501 µM); in [6] it was 0.098 µg/mL (≈ 0.126 µM). Moreover, the MIC in [7] was 0.049 µg/mL (≈ 0.063 µM); in assay [8], 0.049 µg/mL (≈ 0.063 µM); in [9], 0.78 µg/mL (≈ 1 µM); in [10] it was greater than 12.5 µg/mL; in assay [11], greater than 12.5 µg/mL; in [12], 0.2 µg/mL (≈ 0.257 µM). The minimum inhibitory concentration (MIC) is 0.025 µg/mL (≈ 0.0321 µM) in [13], 0.049 µg/mL (≈ 0.063 µM) in assay [14] and greater than 12.5 µg/mL in assay [15].
On to `CC[C@H]1OC(=O)C[C@@H](O)[C@H](C)[C@@H](O[C@@H]2O[C@H](C)[C@@H](O)[C@H](N(C)C)[C@H]2O)[C@@H](CC=O)C[C@@H](C)C(=N\OCCOc2ccccc2)/C=C/C(C)=C/C1CO` (stereo not given in full), for which the minimum inhibitory concentration (MIC) in assay [1] is 0.2 µg/mL (≈ 0.273 µM); in assay [2], greater than 12.5 µg/mL; in assay [3], greater than 12.5 µg/mL; in assay [4] it was greater than 12.5 µg/mL; in assay [5], 3.12 µg/mL (≈ 4.26 µM); in [6], 1.56 µg/mL (≈ 2.13 µM). For the same compound, the minimal inhibitory concentration (MIC) in assay [7] was 0.2 µg/mL (≈ 0.273 µM); in assay [8], 0.39 µg/mL (≈ 0.532 µM); in assay [9] it was 3.12 µg/mL (≈ 4.26 µM); in assay [10] it was greater than 12.5 µg/mL; in assay [11], greater than 12.5 µg/mL; in assay [12] it was 1.56 µg/mL (≈ 2.13 µM). Also, the minimum inhibitory concentration (MIC) was found to be 0.098 µg/mL (≈ 0.134 µM) in [13], 0.78 µg/mL (≈ 1.06 µM) in [14] and 1.56 µg/mL (≈ 2.13 µM) in [15].

The values are drawn from ChEMBL document CHEMBL1139006, “Synthesis and in vitro antibiotic activity of 16-membered 9-O-arylalkyloxime macrolides” (2006).
